The record followed here is patent publication US8585782B2, “Use of specific bis(biphenyl)triazine derivatives and mixtures thereof as UV absorbers” (BASF SE, priority 2010, dated 2013).

This series is described as follows: Measurement of solubility in capric/caprylic triglyceride. It is filed as physicochemical. The following applies: commercial triazine derivatives, state-of-the-art comparison.

Molecules are shown by their SMILES.

Turning to `CCCCC(CC)COC(=O)c1ccc(Nc2nc(Nc3ccc(C(=O)OCC(CC)CCCC)cc3)nc(Nc3ccc(C(=O)OCC(CC)CCCC)cc3)n2)cc1` (centres unmarked) [EHT, Ethylhexyl Triazone], the “solubility in the cosmetic oil capric/caprylic triglyceride” value was found to be 3%.
The value for `CCCCC(CC)COc1ccc(-c2nc(-c3ccc(OC)cc3)nc(-c3ccc(OCC(CC)CCCC)cc3O)n2)c(O)c1` (centres unmarked) [Tinosorb S] was 6%.
